# Results published in patent US20090172831A1, “Methods for the production of plants resistant to HPPD herbicides” (Syngenta Limited, priority 2000, published 2009).
# Legend:
# [1] = target: Wheat HPPD (Triticum aestivum, UniProt A0A3B6NLC6); assay: Dissociation of enzyme/inhibitor complexes by exchange with 14C-labelled inhibitor (koff; Kd = koff/kon); format: binding
# From the text: (§1) Herbicidal inhibitors of HPPD are found here to have generally low values of koff (in the range less than 0.0003 s^−1, often less than 0.000001 s^−1). It will be appreciated that many suitable methods known in the art for determining such low koff values are suitable for working the current invention. These include measuring rates of exchange of radio or otherwise labelled inhibitors either with or away from the enzyme inhibitor complex. For example enzyme inhibitor complexes can readily be prepared by incubating HPPD preparations with labelled or unlabelled inhibitor and then, after suitable periods, optionally rapidly separating the thus formed enzyme inhibitor complex from excess inhibitor by any suitable method such as ultrafiltration, binding to filters or exchange down a gel filtration column. Exchange reactions with the, thus prepared enzyme inhibitor complex is then initiated by addition of, as appropriate, excess labelled or unlabelled inhibitor. HPPD preparations suitable for use in the methods of the current invention are relatively unpurified, buffer-exchanged, supernatant fractions of spun crude lysates of E. coli strains engineered to express the HPPD enzyme of interest at a level of, typically, about 0.25-10% of the total soluble protein. Many methods such as radiometric, fluorimetric, NMR, fluorescence depolarisation, EPR, Mossbauer, UV/VIS spectrophotometry etc. or phonon resonance can, in principle, be used to monitor the enzyme/ligand exchange reactions and, particularly in this case where the enzyme contains an iron atom at the ligand binding site. Optionally, the monitoring method may be continuous (as, for example, with scintillation proximity/bead-based methods) or, discontinuous, based upon collection of data at various timepoints wherein samples are removed and the bound and unbound label components rapidly separated and quantitated.
# (§2) Values of koff can suitably be calculated by computer fitting based upon is numerical integration of the exchange data along with information on the active-site concentration of HPPD and upon kon values obtained as described below. […] In any event, koff values are always here calculated from the rate of the major slow exchange reaction. It will be appreciated that within the scope of the current invention many methods of making the desired kinetic comparisons are possible without explicit or rigorous determination of off rates but, based upon the same underlying principle, will achieve the same selection result.
# The dissociation rates (off rates) of inhibitors selected from Formula 1 and/or 2 and/or 3 and/or 4 from the complexes that they form with test and control HPPD enzymes are suitably measured in a number of ways. Thus, for example, the rates of dissociation of mesotrione, a compound selected from Formula 1 and of the diketonitrile of isoxaflutole, a compound selected from Formula 3 from their respective complexes with, test, wheat HPPD and with, control, Arabidopsis HPPD are compared. The method and results from a typical test are as follows.
# ^14C mesotrione is of specific activity 1.12 GBq/mmol. This is ˜95% pure radiochemically by TLC and based upon the proportion of material tight-binding to HPPD. Arabidopsis and, (test), wheat HPPD are each diluted to a concentration of ˜0.45 and 0.54 μM, respectively into 1.6 ml of 50 mM Bis-Tris propane buffer at pH 7.0 containing 25% glycerol, 25 mM sodium ascorbate and 3 mg/l of bovine catalase (Sigma C3155˜50,000 units/mg) containing […] ^14C mesotrione and left to react at 25 C for 2.5-3 h. Following this initial binding reaction, exchange reactions are initiated by addition of cold mesotrione to a final concentration of 60 μM and 200 μl aliquots removed at various times to rapid chromatography down a NAP5 gel filtration column equilibrated in 50 mM BTP at pH 7 containing 0.1 M KCl, separation into fractions containing protein-bound or free radiolabel and liquid scintillation counting. […]
# [2] = target: T1, Arabidopsis HPPD (Arabidopsis thaliana, UniProt P93836); assay: as above; format: binding
# T1 construct: made in house; host or cells: E. coli BL21 (DE3) codon+ RP
# T1 sequence (P93836 1-445): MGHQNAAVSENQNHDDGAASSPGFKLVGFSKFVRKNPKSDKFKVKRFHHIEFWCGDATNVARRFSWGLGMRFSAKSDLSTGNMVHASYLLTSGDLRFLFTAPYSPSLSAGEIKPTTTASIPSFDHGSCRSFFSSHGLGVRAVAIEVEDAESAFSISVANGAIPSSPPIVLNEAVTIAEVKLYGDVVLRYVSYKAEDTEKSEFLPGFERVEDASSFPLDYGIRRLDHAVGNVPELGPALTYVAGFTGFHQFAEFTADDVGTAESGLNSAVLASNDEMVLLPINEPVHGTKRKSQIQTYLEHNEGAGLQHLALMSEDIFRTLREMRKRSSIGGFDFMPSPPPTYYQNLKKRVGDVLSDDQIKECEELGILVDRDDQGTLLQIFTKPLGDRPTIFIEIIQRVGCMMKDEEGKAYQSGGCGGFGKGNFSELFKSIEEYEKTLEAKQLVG
# Description: as §1, with “It” for “Herbicidal inhibitors of HPPD are found here to have generally low values of koff (in the range less than 0.0003 s^−1, often less than 0.000001 s^−1). It”, “HPPD preparations suitable for use in the methods of the current invention are relatively unpurified, buffer-exchanged, supernatant fractions of spun crude lysates of E. coli strains engineered to express the HPPD enzyme of interest at a level of, typically, about 0.25-10% of the total soluble protein.” left out
# Values of koff can suitably be calculated by computer fitting based upon is numerical integration of the exchange data along with information on the active-site concentration of HPPD and upon kon values obtained as described below. […] In any event, koff values are always here calculated from the rate of the major slow exchange reaction.
# ^14C mesotrione is of specific activity 1.12 GBq/mmol. […] Following this initial binding reaction, exchange reactions are initiated by addition of cold mesotrione to a final concentration of 60 μM and 200 μl aliquots removed at various times to rapid chromatography down a NAP5 gel filtration column equilibrated in 50 mM BTP at pH 7 containing 0.1 M KCl, separation into fractions containing protein-bound or free radiolabel and liquid scintillation counting.
# Nevertheless, here, for practical purposes, koff values are always here calculated from the rate of the major slow exchange reaction.
# Not all test inhibitors are readily available in a radiolabelled form.
# [3] = target: Avena HPPD (Avena sativa, UniProt A0ACD5V6K6); assay: In vitro measurements of Avena HPPD (dissociation rate constants, Ki); format: binding; details: read-out: rate constants governing dissociation of the complexes
# Chain of Avena HPPD (A0ACD5V6K6 entry or part of it): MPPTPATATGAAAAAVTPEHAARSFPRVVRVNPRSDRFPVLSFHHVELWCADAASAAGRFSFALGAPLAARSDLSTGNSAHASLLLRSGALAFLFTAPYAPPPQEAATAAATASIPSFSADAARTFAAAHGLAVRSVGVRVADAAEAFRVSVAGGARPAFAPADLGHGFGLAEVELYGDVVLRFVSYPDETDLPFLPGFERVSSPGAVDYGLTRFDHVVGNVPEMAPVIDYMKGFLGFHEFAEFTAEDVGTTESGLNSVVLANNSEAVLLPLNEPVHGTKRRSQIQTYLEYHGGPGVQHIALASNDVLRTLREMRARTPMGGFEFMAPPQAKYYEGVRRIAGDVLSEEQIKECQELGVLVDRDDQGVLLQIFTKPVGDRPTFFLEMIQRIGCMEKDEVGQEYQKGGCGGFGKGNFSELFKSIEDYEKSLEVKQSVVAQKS
# [4] = target: P. fluorescens HPPD (Pseudomonas fluorescens, UniProt A0ACG8AE61); assay: Dissociation of enzyme/inhibitor complexes by exchange with 14C-labelled inhibitor (koff; Kd = koff/kon); format: binding
# Chain of P. fluorescens HPPD (A0ACG8AE61 entry or part of it): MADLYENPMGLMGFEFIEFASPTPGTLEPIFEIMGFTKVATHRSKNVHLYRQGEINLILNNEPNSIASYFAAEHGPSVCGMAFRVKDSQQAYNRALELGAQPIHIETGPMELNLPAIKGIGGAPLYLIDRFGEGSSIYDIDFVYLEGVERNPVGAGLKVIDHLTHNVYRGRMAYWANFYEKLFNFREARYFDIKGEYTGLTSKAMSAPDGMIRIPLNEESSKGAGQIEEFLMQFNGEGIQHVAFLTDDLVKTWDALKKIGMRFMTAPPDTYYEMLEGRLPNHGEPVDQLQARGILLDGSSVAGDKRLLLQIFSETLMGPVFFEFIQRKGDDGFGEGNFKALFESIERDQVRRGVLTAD
# From the text: as §1
# as §2, with “result. […]” for “result.”
# Not all test inhibitors are readily available in a radiolabelled form. A more general method of measuring off rates is to first form the complex with unlabelled test inhibitor, to rapidly exchange the complex free of excess unlabelled inhibitor and to then start the exchange reaction by addition of an excess of a standard labelled inhibitor, the kinetic properties of which are already known. The reaction is then monitored and the relative proportions of bound and unbound label determined at various times. […] The latter is the method of choice when the rate of exchange is fast (t½<3 h).
# In, variants of the above methods, off rates are measured either in the presence or absence of ˜25% v/v glycerol. In the presence of glycerol values obtained are generally ˜1.5-3× slower than in its absence although sometimes the change is outside this range or, even, in the other direction. Further examples of data obtained are depicted in the following Table 3.
# Crude Extracts of recombinant E. coli strains expressing, in the one case, a control HPPD (from Arabidopsis) and, in the other, one or more test HPPD sequences are prepared as described in the preceding example. The titre of active sites and enzyme activity are also defined and measured as described in the preceding examples. […]
# [5] = system: tobacco plants transformed with Avena sativa 4-HPPD gene; assay: Tolerance of tobacco transformed with Avena sativa HPPD to herbicides; details: in vivo
# From the text: The structure of the resulting vector is shown schematically in FIG. 4.
# The 4-HPPD plant expression cassette is then ligated in to the binary vector pBin19 restricted with Hind III and EcoRI and transformed into E. coli TOP10 cells (Invitrogen). This binary vector is then transformed into tobacco using methods well known in the art and, for example, as described elsewhere herein.
# [6] = system: tobacco plants transformed to express wheat HPPD; assay: Tolerance of tobacco transformed with wheat HPPD to herbicides; format: in vivo; details: in vivo
# From the text: These constructs were all transformed into Agrobacterium tumefaciens strain LBA4404, which in turn was used to transform tobacco, using methodology described previously.
# Explants (i.e. a leaf plus short segment of stem containing the auxiliary bud) are placed into MS agar (+3% sucrose) containing various concentrations of mesotrione (see above) from 0.02 to 2 ppm.
# [7] = system: untransformed tobacco plants variety Samsun; assay: Glasshouse spray test, visible damage; format: in vivo; details: spray 0.0 to 2000 g/ha, assessed ~1 and 3 weeks after treatment
# Description: (§3) Plants are 1) untransformed tobacco plants variety Samsun expressing the endogenous tobacco (control) HPPD gene, 2) tobacco plants transformed to express Pseudomonas HPPD according to the examples herein and 3) tobacco plants transformed to express Wheat HPPD also according to the examples herein.
# (§4) Large numbers of plants are grown from seed in small pots in the glasshouse to the 5-7 leaf seedling stage and sprayed with a range of doses, suitably from 0.0 to 2000 g/ha, of different HPPD-inhibitor herbicides selected from compounds of Formula 1, 2, 3 and 4. Treatments are suitably Formulated in, for example, deionised water+0.5% Turbocharge™ surfactant or, alternatively, 50% acetone/water and applied at […] to a dozen or more replicates of each line and at each spray rate (where the plants were T1 plants (selfed progeny of primary transformants) and still segregating at normally 1:2:1) or, where, homozygous, 3-6 plants. The extent of visible damage in terms of bleaching of meristems and leaves, eventual necrosis and stunting of growth relative to unsprayed controls is assessed at ˜1 and 3 weeks after treatment. Data from susceptible segregants are excluded from the analysis. In summary, results obtained are as follows.
# [8] = system: tobacco plants transformed to express wheat HPPD; assay: Glasshouse spray test, visible damage; format: in vivo
# Description: as §3, §4
# Chain of Wheat HPPD (A0A3B6NLC6 entry or part of it): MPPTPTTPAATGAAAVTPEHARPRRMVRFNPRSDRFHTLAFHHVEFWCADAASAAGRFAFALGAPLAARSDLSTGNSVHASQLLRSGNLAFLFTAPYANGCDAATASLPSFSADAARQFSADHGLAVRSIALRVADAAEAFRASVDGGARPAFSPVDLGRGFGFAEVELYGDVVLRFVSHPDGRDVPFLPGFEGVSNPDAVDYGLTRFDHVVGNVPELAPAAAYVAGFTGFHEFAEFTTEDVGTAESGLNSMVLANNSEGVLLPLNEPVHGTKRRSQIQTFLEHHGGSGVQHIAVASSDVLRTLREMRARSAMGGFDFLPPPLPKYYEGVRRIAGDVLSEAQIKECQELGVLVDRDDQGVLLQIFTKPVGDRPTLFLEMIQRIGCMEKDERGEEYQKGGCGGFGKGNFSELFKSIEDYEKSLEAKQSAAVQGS
Structure (SMILES),"Kd ([1]; Kd, without glycerol, Kd = koff/kon)",koff ([1]; − glycerol),Kd [2],"ratio Kd4/Kd1, structure V to structure I [2]",koff ([2]; − glycerol),koff [3],"ratio Kd4/Kd1, structure V to structure I [4]","Kd ([4]; without glycerol, Kd = koff/kon, read-out: Kd)",koff ([4]; − glycerol),resistance of the transgenic plants compared with that to mesotrione [5],resistance of the transgenic plants compared with that to mesotrione [6],fold more susceptible of the herbicide than of mesotrione [7],fold less susceptible of mesotrione than of the named herbicide [8]
"CC1(C)C(=O)C(C(=O)c2ccc(Cl)cc2[N+](=O)[O-])C(=O)C(C)(C)C1=O [Structure V, 2-[2-nitro-4-chlorobenzoyl]-4,4,6,6-tetramethylcyclohexane-1,3,5-trione]",0.011 nM,4.2e-06 s⁻¹,0.004 nM,0.28,1.25e-06 s⁻¹,< 4e-06 s⁻¹,> 4.3,> 1.5 nM,> 0.0002 s⁻¹,,,,
"CS(=O)(=O)c1cc(C(F)(F)F)ccc1C(=O)c1cnoc1C1CC1 [isoxaflutole, 5-cyclopropyl-4-(2-methylsulphonyl-4-trifluoromethylbenzoyl)-isoxazole]",,,,,,,,,,substantially less resistant,substantially less resistant,1-2 fold,4-10 fold
